# Test results reported in PubChem BioAssay AID2401 (Southern Research Specialized Biocontainment Screening …, 2010).
# System: S. Typhimurium GFP reporter counter-screen, fluorescence, 4 h
# Assay: S. Typhimurium nonspecific reporter signal inhibition – Salmonella Typhimurium, GFP fluorescence, counter-screen for PhoP regulon inhibitor project, dose response (AID 2401);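 further: S. typhimurium with Mg-insensitive nmpC-GFP reporter grown at 10 µM Mg2+; drop in reporter fluorescence reflects general culture growth inhibition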
row,SMILES,IC50 [µM]
1,CC[n+]1c(/C=C/c2ccc(N(C)C)cc2)ccc2ccccc21,37.3
2,O=C(N/N=C/c1coc2ccc(Cl)cc2c1=O)c1cc(O)cc(O)c1,88
3,CC(C(=O)NC1CCS(=O)(=O)C1)N1C(=O)/C(=C/c2ccc(Cl)cc2)SC1=S (stereo unspecified),11.6
4,CC(=O)NC(c1ccc(C)cc1)c1cc([N+](=O)[O-])c2cccnc2c1O (stereo unspecified),33.5
5,CCn1nc(C(=O)O)c(=O)c2cc3c(cc21)OCO3,49
6,O=C(N/N=C/c1ccc(Sc2ccccn2)o1)c1cc2ccccc2cc1O,107
7,CC(=O)Oc1cc2cccc(OC(C)=O)c(=O)c2c(OC(C)=O)c1OC(C)=O,62.8
8,Cc1[nH]n(-c2ccccc2)c(=O)c1/C=N/Nc1nncc(-c2ccccc2)n1,19.1
9,O=[N+]([O-])c1ccc(N/N=C/c2ccc[nH]2)cc1,62
10,CC(C)(C)CC(C)(C)c1ccc(OCCOCC[N+](C)(C)Cc2ccccc2)cc1,32.8
11,Cc1ccc(Nc2cc(C)c3ccc(O)cc3n2)cc1C,146
12,CCn1cc(C(=O)O)c(=O)c2cc(F)c(N3CCN(C(=S)NC(=O)c4ccc(OC)cc4)CC3)cc21,29.4
13,CCn1cc(C(=O)NCCN(C)C)c(=O)c2cc(F)c(N3CCN(C)CC3)cc21,89.8
14,Cc1[nH]n(-c2ccccc2)c(=O)c1C(C[N+](=O)[O-])c1ccc(F)cc1 (stereo unspecified),78.8
15,O=C(N/N=C\C=C\c1ccc([N+](=O)[O-])o1)c1cccs1,20.9
16,CCn1c(N)[n+](CC(=O)Nc2ccc(SC(F)F)cc2)c2ccccc21,132
17,COc1ccc(-c2ccc3c(N)c(C(=O)c4cccc(OC)c4)sc3n2)cc1,83.2
18,Cc1ccc(C(=O)O)cc1N=Cc1cc(Br)cc(Br)c1O,85.6
19,CC[C@H]1OC(=O)[C@H](C)[C@@H](O[C@H]2C[C@@](C)(OC)[C@@H](O)[C@H](C)O2)[C@H](C)[C@@H](O[C@@H]2O[C@H](C)C[C@H](N(C)C)[C@H]2O)[C@](C)(O)C[C@@H](C)CN(C)[C@H](C)[C@@H](O)[C@]1(C)O,2.37
20,CC1COc2c(N3CCN(C)CC3)c(F)cc3c(=O)c(C(=O)O)cn1c23 (stereo unspecified),0.8
21,CCCCCOc1ccc(Br)cc1CSC(=N)N,61.1
22,COc1cc(C(=O)Oc2c(CN3CCOCC3)cc(Cl)c3cccnc23)cc(OC)c1OC,126
23,O=C1C=C(O)c2c(O)cc(O)c(O)c2C1=O,76.8

row,SMILES,IC50 [µM]
1,C=CS(=O)(=O)c1ccc(Oc2ccc(S(=O)(=O)C=C)cc2)cc1,111
2,CCCCCCCSc1cc(OC)c(CCN(C)C)cc1OC,57.2
3,Cc1ccc(C(=O)N/N=C/c2cc(Br)ccc2O)cn1,55.7
4,CCOc1ccc(Nc2c3ccccc3nc3ccccc23)cc1,77.3
5,CCOC(=O)N1CCN(C(c2cccnc2)c2ccc3cccnc3c2O)CC1 (stereo unspecified),41.8
6,NC1=NC[C@H](Cc2ccc(O)cc2)N1CCCCC1CCCCC1,51
7,Cc1ccc(C)c(/C=C/C(=O)c2ccccc(=O)c2O)c1,38.9
8,COc1ccc(C(C[N+](=O)[O-])n2nc(C)cc2C)cc1 (stereo unspecified),13.4
9,O=[N+]([O-])c1ccc(CNC2CCCc3ccccc32)cc1 (stereo unspecified),97.4
10,CCCCCCCCCCOC(=O)C[N+](C)(C)C/C=C(/C)Cl,44.9
11,CNC[C@H](Cc1ccccc1)NC[C@@H](Cc1cccc2ccccc12)NCCc1ccc(C)cc1,26.2
12,Cc1ccc(Nc2nc(N)c3ccccc3n2)cc1Cl,52.2
13,COc1ccc(C(=O)N/N=C/c2sc3ccccc3c2O)cc1,41.5
14,CCCCCC(CC(=O)NO)C(=O)NC(C(=O)N1CCCC1CO)C(C)C (stereo unspecified),144
15,CCN(CC)CCOc1ccc2c(c1)C(=NNC(=O)c1ccccn1)c1cc(OCCN(CC)CC)ccc1-2,38.1
16,CCCCCCCCNc1ncnc2ccccc12,150
17,c1ccc(-c2cccc(-c3ccccn3)n2)nc1,21.2
18,Cc1nc(N)nc(N)c1/C=C/C(C)(C)c1ccc(Cl)cc1,8.11
19,CCN1CCN(C(c2cccnc2)c2cc(Cl)c3cccnc3c2O)CC1 (stereo unspecified),36
20,CCc1ccc(-c2nn(-c3ccccc3)cc2CSC(=N)N)cc1,53.1
21,O=[N+]([O-])/C=C/c1cc2ccccc2[nH]1,138
22,O=CN/N=C/c1c(O)ccc2ccccc12,37.2
23,Cc1cc2nc3ccc(=[N+](C)C)cc-3sc2cc1N,36.5

row,SMILES,IC50 [µM]
1,COc1ccc(Nc2cc(C)c3c(O)cccc3n2)cc1,47.2
2,CCn1cc(C(=O)O)c(=O)c2cc(F)c(N3CCN(C(=S)NC(=O)c4cccc(F)c4)CC3)cc21,69.6
3,Nc1nc2ccccc2n1Cc1ccc(Cl)c(Cl)c1,76.5
4,O=C(N/N=C/c1c[nH]c2ccccc12)c1cc(-c2cccc3ccccc23)n[nH]1,85.3
5,Oc1c(C(Nc2cccc(C(F)(F)F)c2)c2cccnc2)ccc2cccnc12 (stereo unspecified),39.3
6,CC(=O)NC(c1ccc2ccccc2c1)c1ccc2cccnc2c1O (stereo unspecified),100
7,NC1CCN(c2c(F)cc3c(=O)c(C(=O)O)cn(C4CC4)c3c2Cl)C1 (stereo unspecified),< 0.23
8,O=[N+]([O-])c1ccc(Sc2nc3ccccc3o2)c([N+](=O)[O-])c1,103
9,COc1c(N2CCN(C(=S)Nc3ccccc3F)C(C)C2)c(F)cc2c(=O)c(C(=O)O)cn(C3CC3)c12 (stereo unspecified),15.3
10,Cc1ccc(C(C[N+](=O)[O-])c2c(N)n(C)c(=O)n(C)c2=O)cc1 (stereo unspecified),15.1
11,CO[C@H]1C=CO[C@@]2(C)Oc3c(C)c(O)c4c(O)c(c(C=NN5CCN(C)CC5)c(O)c4c3C2=O)NC(=O)C(C)=CC=C[C@H](C)[C@H](O)[C@@H](C)[C@@H](O)[C@@H](C)[C@H](OC(C)=O)[C@@H]1C,3.44
12,O=C1OC(/C(=C\Nc2ccc(F)cc2F)[N+](=O)[O-])c2ccccc21 (stereo unspecified),61.1
13,CC1CCC(C(C)C)C(OC(=O)Cn2c(COc3ccccc3)[n+](C)c3ccccc32)C1 (stereo unspecified),40.4
14,CN1CCc2c(sc(NC(=O)c3ccc([N+](=O)[O-])o3)c2C(N)=O)C1,47.7
15,CNc1cc(Cl)c2nonc2c1[N+](=O)[O-],37.7
16,C=C1c2c(Cl)ccc(O)c2C(O)=C2C(=O)[C@]3(O)C(O)=C(C(N)=O)C(=O)[C@@H](N(C)C)[C@@H]3[C@@H](O)C12 (stereo partly specified),1.28
17,O=C(CSc1ccccn1)N/N=C/c1cc([N+](=O)[O-])ccc1O,34.9
18,COC1C(OC(=O)c2ccc(C)[nH]2)C(O)C(Oc2ccc3c(O)c(NC(=O)c4ccc(O)c(CC=C(C)C)c4)c(=O)oc3c2Cl)OC1(C)C (stereo unspecified),16.5
19,CCn1cc(C(=O)NCCCO)c(=O)c2cc(F)c(N3CCN(C)CC3)cc21,46.8
20,O=Cc1ccc(O)c2ncccc12,8.12
21,Nc1cc(Cl)c2nonc2c1[N+](=O)[O-],54.1
22,C/C(=N\NC(=O)c1cc2ccccc2cc1O)c1ccccn1,17
23,O=[N+]([O-])c1cc(F)c2cccnc2c1O,9.05

row,SMILES,IC50 [µM]
1,CCCCCCCCCC[n+]1cccc2c3ccccc3ccc21,23.4
2,CCn1cc(C(=O)NCC(C)C)c(=O)c2cc(F)c(N3CCN(C)CC3)cc21,67.8
3,Cc1ccc(Nc2nc(NCc3ccco3)c3ccccc3n2)cc1,22.2
4,CCn1cc(C(=O)O)c(=O)c2cnc(N3CCNCC3)nc21,68.4
5,CCCCCCCCCCOC(=O)Cn1c(COc2ccc(Cl)cc2)[n+](C)c2ccccc21,19.5
6,Nc1nc(N)c(Cc2ccc(Cl)cc2Cl)c(N)n1,100
7,CC(=O)NC(c1cccc([N+](=O)[O-])c1)c1ccc2cccnc2c1O (stereo unspecified),47.1
8,Cc1ccc(-c2csc(N=C(N)N)n2)cc1,109
9,CCC(C)NC(=O)c1cn(CC)c2cc(N3CCN(C)CC3)c(F)cc2c1=O (stereo unspecified),70.6
10,CCCCN(CCCC)C(=O)c1cn(CC)c2cc(N3CCN(C)CC3)c(F)cc2c1=O,21.9
11,Cc1cc(C(=O)N/N=C/c2ccc([N+](=O)[O-])s2)n[nH]1,35
12,CCCc1nnc(NC(=O)c2cn(CC)c3cc(N4CCN(C)CC4)c(F)cc3c2=O)s1,117
13,Oc1ccc(Cl)cc1Cc1cc(Cl)ccc1O,38.6
14,CCCCCN=C(N)N/N=C/c1c[nH]c2ccc(OC)cc12,37
15,COc1cccc(/C=N\NC(=O)Cn2nnc3ccccc32)c1O,57.6
16,O=c1[nH][nH]c(-c2ccccc2O)c1C(C[N+](=O)[O-])c1cccc(Cl)c1 (stereo unspecified),69.8
17,CCCCCNCC(=O)Nc1cccc(C(=O)Nc2cccc(C(F)(F)F)c2)c1,83.2
18,CC(=O)N1CCN(c2cc3c(cc2F)c(=O)c(C(=O)O)cn3C2CC2)CC1,36.5
19,O=S1(=O)CCC(NC(=S)SCCOc2ccccc2)C1 (stereo unspecified),64.8
20,C[C@H]1COc2c(N3CCN(C)CC3)c(F)cc3c(=O)c(C(=O)O)cn1c23,0.37
21,Nc1cccc2nc3ccccc3cc12,26.7
22,CCOC(=O)C1=Nc2ccccc2C1=[N+]=[N-],42.6
23,CC(C(=O)NC1C=CS(=O)(=O)C1)N1C(=O)/C(=C/c2ccc(Cl)cc2)SC1=S (stereo unspecified),15.4

row,SMILES,IC50 [µM]
1,Oc1c(C(Nc2ccccn2)c2ccccn2)ccc2cccnc12 (stereo unspecified),40.2
2,CN1CCN(c2c(F)cc3c(=O)c(C(=O)O)cn4c3c2OCN4C)CC1,0.61
3,Cn1cnc([N+](=O)[O-])c1Oc1cccc(O)c1,143
4,CC1CCC(C(C)C)C(OC(=O)Cn2c(-c3ccc(Cl)cc3)[n+](C)c3ccccc32)C1 (stereo unspecified),82.9
5,Cc1cc(/C=N/n2c(COc3ccccc3C)nc3ccccc3c2=O)c(O)c([N+](=O)[O-])c1,70.4
6,CCCCCCCCCCOC(=O)Cn1c(COc2ccccc2OC)[n+](C)c2ccccc21,21.4
7,COc1cc(C)c(Cc2cnc(N)nc2N)cc1OC,2.03
8,Oc1cc(Cl)ccc1Oc1ccc(Cl)cc1Cl,0.49
9,CCn1cc(C(=O)O)c(=O)c2cc(F)c(N3CCN(C(=S)Nc4ccc(OC)cc4)CC3)cc21,15.3
10,CN(C)c1ccc(/C=C/c2ccc3ccccc3[n+]2C)cc1,19.8
11,O=C1c2ccccc2NC(c2ccc(-c3cccc(Cl)c3)o2)N1O (stereo unspecified),52.2
12,COc1ccc2[nH]c3c(C)c4ccncc4c(C)c3c2c1,20.5
13,O=c1c2c(-c3ccccc3)csc2nc2c3ccccc3c(NCCN3CCOCC3)nn12,147
14,Oc1ccc(/C=N/Nc2ncc(Br)cn2)c(O)c1,71.1
15,O=C(N/N=C/c1cc([N+](=O)[O-])ccc1O)c1ccncc1,24.2
16,Cc1sc2ncnc(N/N=C/c3ccccc3O)c2c1C,72.3
17,O=C(O)Cc1sc(Nc2ccc(Cl)cc2)nc1-c1cccs1,147
18,Cc1ccc(Nc2cc(C)nn2-c2nc(C)cc(=O)[nH]2)cc1,13.1
19,NCC12CC3CC(C1)CC(c1ccc(Br)cc1)(C3)C2,40.3
